Like-named read-outs stand apart in the source and are kept apart here.
Experiments:
[1] = system: primary cynomolgus plasma cells (CD138+); test: Autologous T cell-mediated killing of cynomolgus monkey plasma cells; format: cell-based
Experimental: The specific killing of enriched CD138^+ human or cynomolgus monkey plasma cells by unstimulated autologous T cells was assessed by flow cytometry. Human or cynomolgus bone marrow aspirates and blood were provided within 24 hours of harvest. CD138^+ plasma cells were enriched from bone marrow by positive selection using the EasySep™ Human CD138^+ Positive Selection kit according to the manufacturer's instructions. PBMC from whole blood were isolated by density separation. PBMC were labeled with 1 μM of Vybrant™ CFDA-SE fluorescent tracking dye. […] At the end of the culture, surviving CD138^+ plasma cells were analyzed by flow cytometry, utilizing fixable LIVE/DEAD dye and plasma cell specific cell surface markers. Percent viability was normalized to control condition (plasma cells in the presence of PBMC only). T cell activation was assessed by flow cytometry. Activation is reported as the percentage of CD2^+/CD4^+ or CD2^+/CD8^+/CD16^− T cells expressing CD25. Percent T cell activation was normalized to control condition (plasma cells in the presence of PBMC only).

MC38/BCMA tumors [2] = test: Syngenic MC38/BCMA tumor model in CD3-humanized mice (Example 16); format: in vivo, mouse
Experimental: To determine the in vivo efficacy of anti-BCMA×anti-CD3 bispecific antibodies (Abs), a syngenic tumor study was performed in mice expressing human CD3. C57BL/6 mice that express human CD3deg in place of murine CD3deg (CD3-humanized mice) were subcutaneously implanted with either 0.5×10^6 B16 melanoma cells that have been engineered to express full-length human BCMA (B16/BCMA cells) or 1×10^6 MC38 colon carcinoma cells that have been engineered to express full-length human BCMA (MC38/BCMA). […] The mice were administered these Abs twice more on days 4 and 7 for a total of three doses, and tumor growth was assessed throughout the experiment.
Implantation and measurement of syngenic tumors: C57BL/6 mice that express human CD3deg in place of murine CD3deg (CD3-humanized mice) were subcutaneously implanted with either 0.5×10^6 B16F10 melanoma cells that have been engineered to express full-length human BCMA (B16/BCMA cells) or 1×10^6 MC38 colon carcinoma cells that have been engineered to express full-length human BCMA (MC38/BCMA). […] The mice were administered these Abs twice more on days 4 and 7 for a total of three doses, and tumor growth was assessed throughout the experiment.
(§1) Calculation of syngenic tumor growth and inhibition: In order to determine tumor volume by external caliper, the greatest longitudinal diameter (length in mm) and the greatest transverse diameter (width in mm) were determined. Tumor volumes based on caliper measurements were calculated by the formula: Volume (mm^3)=(length×width^2)/2.

MC38/BCMA tumors [3] = test: Syngenic MC38/BCMA tumor model, combination with anti-PD-1, second experiment (Example 21); format: in vivo, mouse; conditions: REGN5458 0.04 or 0.4 mg/kg plus anti-PD-1 4 mg/kg
Description: Implantation and measurement of syngenic tumors: C57BL/6 mice that express human CD3deg in place of murine CD3deg (CD3-humanized mice) were subcutaneously implanted with 1×10^6 MC38 colon carcinoma cells that have been engineered to express full-length human BCMA (MC38/BCMA).
as §1

[4] = system: Jurkat/NFATLuc.3C7 cells + MOLP-8 cells; test: Jurkat/NFATLuc reporter bioassay with MOLP-8 cells; format: cell-based; conditions: highest RLU / lowest RLU
Experimental: Activity of the anti-BCMA×anti-CD3 bispecific antibodies were assessed in a Jurkat/NFATLuc reporter bioassay utilizing several cell lines with varying levels of BCMA surface expression. The Jurkat cells were engineered to express an NFAT-luciferase reporter (Jurkat/NFATLuc.3C7), and 50,000 Jurkat reporter cells were combined with 50,000 BCMA positive (Daudi, MM1-S, NCI-H929, OPM-2, RPMI-8226, MOLP-8, or Raji) or BCMA negative (HEK293) cells in Thermo Nunclon delta 96 well white microwell plates (Thermo Scientific, Cat #136102) in 50 ul of assay media (RPMI media with 10% FBS and 1% P/S/G). Three-fold serial dilutions of the BCMA×CD3 bispecific antibodies (mAb25441 D or mAb25442D), or a bivalent anti-BCMA antibody (mAb21581) were immediately added in 50 μL of assay buffer. The plates were gently agitated and incubated in a 37° C., 5% CO2 incubator for 4-6 hours. NFAT-Luciferase activity was determined using Promega One-Glo (Cat #E6130) and a Perkin Elmer Envision plate reader. RLU were plotted in GraphPad Prism using a four-parameter logistic equation over a 12-point response curve to calculate EC50 values. […] The signal to noise (S:N) is determined by taking the ratio of the highest RLU on the curve to the lowest.

human BCMA-MFC = biological target: T1, human BCMA-MFC (Homo sapiens, UniProt Q02223); test: SPR (Biacore 4000) binding kinetics to human BCMA-MFC; conditions: 25° C.
T1 construct: (human BCMA-MFC); made in house
Experimental: (§2) The CM5 Biacore sensor surface was derivatized by amine coupling with a monoclonal mouse anti-human Fc antibody (GE, #BR-11008-39) to capture purified anti-BCMA mAbs and anti-BCMA×anti-CD3 bispecific mAbs. All Biacore binding studies were performed in a buffer composed of 0.01 M HEPES pH 7.4, 0.15M NaCl, 3 mM EDTA, 0.05% v/v Surfactant P20 (HBS-ET running buffer). […] Antigen samples were then injected over the anti-BCMA and anti-BCMA×anti-CD3 bispecific mAbs captured surfaces at a flow rate of 30 μL/minute. Antibody-reagent association was monitored for 5 minutes while dissociation in HBS-ET running buffer was monitored for 10 minutes. All of the binding kinetics experiments were performed at 25° C. Kinetic association (ka) and dissociation (kd) rate constants were determined by fitting the real-time sensorgrams to a 1:1 binding model using Scrubber 2.0c curve fitting software. Binding dissociation equilibrium constants (KD) and dissociative half-lives (t½) were calculated from the kinetic rate constants as: […]

monkey BCMA-MMH = test: SPR (Biacore 4000) binding kinetics to monkey BCMA-MMH; conditions: 25° C.
Experimental: as §2

[5] = Cynomolgus Monkey Donor 1 plasma cells, autologous T cells, maximum

monkey BCMA-MMH, sequence (as listed by the source): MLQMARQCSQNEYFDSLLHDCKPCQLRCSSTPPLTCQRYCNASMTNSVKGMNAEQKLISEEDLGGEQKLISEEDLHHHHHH
T1 sequence (Q02223 with tags, fused parts or gaps): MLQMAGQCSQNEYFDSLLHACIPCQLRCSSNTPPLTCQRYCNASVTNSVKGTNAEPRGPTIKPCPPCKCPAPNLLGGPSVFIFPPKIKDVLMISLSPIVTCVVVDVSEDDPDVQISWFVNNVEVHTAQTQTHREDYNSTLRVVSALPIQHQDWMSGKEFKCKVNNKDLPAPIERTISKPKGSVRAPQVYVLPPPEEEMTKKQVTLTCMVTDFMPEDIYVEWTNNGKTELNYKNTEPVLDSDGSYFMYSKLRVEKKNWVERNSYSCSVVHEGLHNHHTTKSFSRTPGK

**Q.** Which results are given for “REGN5458: anti-BCMA×anti-CD3 bispecific antibody: BCMA HCVR of mAb21581 (SEQ 66), CD3 HCVR of mAb7221G (SEQ 90), common LCVR SEQ 82”?
**A.** T Cell Activation (% CD25 Upregulation) CD4+ T cells % Activation [1, 5]: 9%; T Cell Activation (% CD25 Upregulation) CD8+ T cells % Activation [1, 5]: 12%; EC50 ([1]; Cynomolgus Monkey Donor 1 plasma cells, autologous T cells, read-out: T Cell Activation (% CD25 Upregulation) CD8+ T cells EC50): 22.4 nM; Cytotoxic Kill Max % Cytotoxicity ([1]; Cynomolgus Monkey Donor 1 plasma cells, autologous primary cynomolgus T cells, E:T 10:1, 72 hours): 94%; EC50 ([1]; Cynomolgus Monkey Donor 1 plasma cells, autologous primary cynomolgus T cells, E:T 10:1, 72 hours, read-out: Cytotoxic Kill EC50): 1.31 nM; T Cell Activation (% CD25 Upregulation) CD4+ T cells % Activation ([1]; Cynomolgus Monkey Donor 2 plasma cells, autologous T cells, maximum): 16%; EC50 ([1]; Cynomolgus Monkey Donor 2 plasma cells, autologous T cells, read-out: T Cell Activation (% CD25 Upregulation) CD4+ T cells EC50): ~18.1 nM; Cytotoxic Kill Max % Cytotoxicity ([1]; Cynomolgus Monkey Donor 2 plasma cells, autologous primary cynomolgus T cells, E:T 10:1, 72 hours): 91%; maximum percent T cell activation, CD4+ T cells ([1]; cynomolgus donor 1): 9%; maximum percent T cell activation, CD8+ T cells ([1]; cynomolgus donor 1): 12%; maximum percent cytotoxicity ([1]; cynomolgus donor 1): 94%; EC50 ([1]; cynomolgus donor 1, read-out: CD4+ T cell activation EC50): 28.1 nM; EC50 ([1]; cynomolgus donor 1, read-out: CD8+ T cell activation EC50): 22.4 nM; EC50 ([1]; cynomolgus donor 1, read-out: cytotoxicity EC50): 1.31 nM; maximum percent T cell activation, CD4+ T cells ([1]; cynomolgus donor 2): 16%; maximum percent cytotoxicity ([1]; cynomolgus donor 2): 91%; EC50 ([1]; cynomolgus donor 2, read-out: CD4+ T cell activation EC50): 18.1 nM; EC50 ([1]; cynomolgus donor 2, read-out: CD8+ T cell activation EC50): 76.7 nM; Average Tumor Size (mm3) ± SEM on Day 5 (MC38/BCMA tumors [2]; MC38/BCMA Tumor, 0.04 mg/kg, Day 5): 11.9 ± 2.9 mm3; Average Tumor Size (mm3) ± SEM on Day 10 (MC38/BCMA tumors [2]; MC38/BCMA Tumor, 0.04 mg/kg): 66.7 ± 22.5 mm3; Average Tumor Size (mm3) ± SEM on Day 14 (MC38/BCMA tumors [2]; MC38/BCMA Tumor, 0.04 mg/kg): 273.3 ± 115.3 mm3; Average Tumor Size (mm3) ± SEM on Day 18 (MC38/BCMA tumors [2]; MC38/BCMA Tumor, 0.04 mg/kg): 641.5 ± 309.8 mm3; Average Tumor Size (mm3) ± SEM on Day 10 (MC38/BCMA tumors [2]; MC38/BCMA Tumor, 0.4 mg/kg): 0.0 ± 0.0 mm3; Average Tumor Size (mm3) ± SEM on Day 14 (MC38/BCMA tumors [2]; MC38/BCMA Tumor, 0.4 mg/kg): 2.9 ± 2.9 mm3; Average Tumor Size (mm3) ± SEM on Day 18 (MC38/BCMA tumors [2]; MC38/BCMA Tumor, 0.4 mg/kg): 7.5 ± 7.5 mm3; tumor growth (in words) (MC38/BCMA tumors [2]; MC38/BCMA, 0.4 or 0.04 mg/kg, three doses): suppress the growth of both tumor lines in a dose-dependent manner; anti-tumor efficacy of the combination (in words) (MC38/BCMA tumors [3]): superior anti-tumor efficacy

**Q.** With “REGN5459: anti-BCMA×anti-CD3 bispecific antibody: BCMA HCVR of mAb21581 (SEQ 66), CD3 HCVR of mAb7221G20 (SEQ 98), common LCVR SEQ 82” as the substance, how does the “S:N” value [4] read?
**A.** The value was 31.

**Q.** What about the “ka” value (human BCMA-MFC) of the same substance?
**A.** Its value is 449000 M⁻¹ s⁻¹.

**Q.** And the “kd” value (human BCMA-MFC)?
**A.** Its value is at most 1e-05 s⁻¹.

**Q.** What about the “ka” value (monkey BCMA-MMH) of the same substance?
**A.** Its value is 223000 M⁻¹ s⁻¹.

**Q.** What about the “kd” value (monkey BCMA-MMH) of the same substance?
**A.** Its value is 0.00864 s⁻¹.

Reference: patent US20260008862A1, “Bispecific Anti-BCMA x Anti-CD3 Antibodies and Uses Thereof” (Regeneron Pharmaceuticals, Inc., priority 2018, published 2026)
